Four molecules from ChEMBL document CHEMBL2074262, “Molecular identification and characterization of novel members of the human organic anion transporter (OATP) family” (Biochem Biophys Res Commun, 2000) can be followed below.

Holding throughout (format): functional, cell-based
Data set [1] addresses T1, Solute carrier organic anion transporter family member 3A1 (Homo sapiens, UniProt Q9UIG8).
T1 sequence (Q9UIG8 whole entry): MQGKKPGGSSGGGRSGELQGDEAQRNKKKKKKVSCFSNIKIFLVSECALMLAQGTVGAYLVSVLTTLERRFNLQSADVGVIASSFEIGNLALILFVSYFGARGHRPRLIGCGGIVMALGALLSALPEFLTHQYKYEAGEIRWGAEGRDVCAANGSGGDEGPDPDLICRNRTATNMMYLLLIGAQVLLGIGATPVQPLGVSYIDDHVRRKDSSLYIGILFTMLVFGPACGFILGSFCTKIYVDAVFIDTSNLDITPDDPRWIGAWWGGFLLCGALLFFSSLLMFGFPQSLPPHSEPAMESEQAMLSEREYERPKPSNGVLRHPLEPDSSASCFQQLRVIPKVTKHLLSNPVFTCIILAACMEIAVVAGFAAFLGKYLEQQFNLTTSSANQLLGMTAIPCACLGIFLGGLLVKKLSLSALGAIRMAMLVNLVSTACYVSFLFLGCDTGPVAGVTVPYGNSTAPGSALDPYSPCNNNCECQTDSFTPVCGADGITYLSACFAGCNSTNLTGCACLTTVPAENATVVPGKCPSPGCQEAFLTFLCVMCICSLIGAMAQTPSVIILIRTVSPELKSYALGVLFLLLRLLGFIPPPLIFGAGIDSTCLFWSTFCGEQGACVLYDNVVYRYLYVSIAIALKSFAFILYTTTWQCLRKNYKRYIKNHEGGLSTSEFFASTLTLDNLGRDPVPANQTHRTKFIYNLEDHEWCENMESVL
Description: TP_TRANSPORTER: uptake in OATP-D-expressing HEK293 cells.

Data set [2] addresses T2, Solute carrier organic anion transporter family member 2B1 (Homo sapiens, UniProt O94956).
T2 sequence (O94956 whole entry): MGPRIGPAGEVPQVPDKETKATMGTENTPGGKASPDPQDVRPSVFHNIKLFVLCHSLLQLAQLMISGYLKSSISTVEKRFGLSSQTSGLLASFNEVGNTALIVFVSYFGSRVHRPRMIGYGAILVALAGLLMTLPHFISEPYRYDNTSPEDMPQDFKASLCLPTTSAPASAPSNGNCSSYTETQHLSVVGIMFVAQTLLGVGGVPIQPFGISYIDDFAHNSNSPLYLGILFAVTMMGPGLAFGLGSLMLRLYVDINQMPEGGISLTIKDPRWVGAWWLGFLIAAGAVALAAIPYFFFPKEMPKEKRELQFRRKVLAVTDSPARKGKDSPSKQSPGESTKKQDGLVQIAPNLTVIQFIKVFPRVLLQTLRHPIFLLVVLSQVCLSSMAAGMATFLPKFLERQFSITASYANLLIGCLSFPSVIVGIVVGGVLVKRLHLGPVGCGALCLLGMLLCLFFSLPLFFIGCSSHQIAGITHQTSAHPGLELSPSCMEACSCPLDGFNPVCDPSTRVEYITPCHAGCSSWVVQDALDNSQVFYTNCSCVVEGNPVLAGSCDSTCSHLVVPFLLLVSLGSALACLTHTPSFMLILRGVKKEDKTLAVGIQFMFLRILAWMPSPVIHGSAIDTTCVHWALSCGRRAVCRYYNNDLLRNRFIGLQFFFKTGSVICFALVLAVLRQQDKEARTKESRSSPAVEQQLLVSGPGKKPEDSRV
Description: TP_TRANSPORTER: uptake in OATP-B-expressing HEK293 cells.

Data set [3] deals with T3, Solute carrier organic anion transporter family member 1B1 (Homo sapiens, UniProt Q9Y6L6).
T3 sequence (Q9Y6L6 whole entry): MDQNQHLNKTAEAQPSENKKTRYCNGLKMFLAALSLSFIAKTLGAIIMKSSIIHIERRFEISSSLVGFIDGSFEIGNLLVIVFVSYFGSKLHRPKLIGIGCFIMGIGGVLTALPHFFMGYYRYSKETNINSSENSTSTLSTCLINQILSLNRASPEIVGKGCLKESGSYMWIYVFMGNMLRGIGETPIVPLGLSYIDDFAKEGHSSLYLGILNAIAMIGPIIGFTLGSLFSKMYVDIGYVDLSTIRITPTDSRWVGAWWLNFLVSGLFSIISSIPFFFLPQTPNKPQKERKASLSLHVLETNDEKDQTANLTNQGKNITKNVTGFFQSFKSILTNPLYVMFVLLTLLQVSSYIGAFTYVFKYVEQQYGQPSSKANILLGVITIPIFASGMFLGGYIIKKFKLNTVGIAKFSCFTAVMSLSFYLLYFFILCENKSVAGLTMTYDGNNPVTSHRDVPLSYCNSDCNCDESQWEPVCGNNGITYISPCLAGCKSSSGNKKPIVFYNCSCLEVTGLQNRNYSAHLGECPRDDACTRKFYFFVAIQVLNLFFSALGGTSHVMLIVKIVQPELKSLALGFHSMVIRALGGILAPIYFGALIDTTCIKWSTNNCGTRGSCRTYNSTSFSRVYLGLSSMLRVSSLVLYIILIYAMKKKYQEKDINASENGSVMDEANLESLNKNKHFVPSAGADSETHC
Description: TP_TRANSPORTER: uptake in OATP-C-expressing HEK293 cells.

For data set [4], the target named is T4, Solute carrier organic anion transporter family member 4A1 (Homo sapiens, UniProt Q96BD0).
T4 sequence (Q96BD0 whole entry): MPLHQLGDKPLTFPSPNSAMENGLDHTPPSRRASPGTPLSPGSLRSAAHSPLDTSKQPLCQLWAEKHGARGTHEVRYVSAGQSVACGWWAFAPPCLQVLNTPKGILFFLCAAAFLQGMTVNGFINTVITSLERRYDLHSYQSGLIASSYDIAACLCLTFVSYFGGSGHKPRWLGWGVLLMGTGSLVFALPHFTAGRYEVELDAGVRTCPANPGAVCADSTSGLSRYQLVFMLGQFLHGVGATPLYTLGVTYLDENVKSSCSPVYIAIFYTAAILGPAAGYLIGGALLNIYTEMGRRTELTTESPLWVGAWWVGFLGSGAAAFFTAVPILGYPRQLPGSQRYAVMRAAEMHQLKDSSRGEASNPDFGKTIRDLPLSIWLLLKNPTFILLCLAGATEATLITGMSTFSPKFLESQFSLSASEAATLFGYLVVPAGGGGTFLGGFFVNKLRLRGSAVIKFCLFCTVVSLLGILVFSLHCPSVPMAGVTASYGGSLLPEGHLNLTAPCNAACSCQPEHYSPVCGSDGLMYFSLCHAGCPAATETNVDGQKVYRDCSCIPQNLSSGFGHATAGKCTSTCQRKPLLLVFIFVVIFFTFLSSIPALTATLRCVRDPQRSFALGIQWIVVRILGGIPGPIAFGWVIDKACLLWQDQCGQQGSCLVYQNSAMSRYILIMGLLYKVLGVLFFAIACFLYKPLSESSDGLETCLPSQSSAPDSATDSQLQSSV
Briefly: TP_TRANSPORTER: uptake in OATP-E-expressing HEK293 cells.

For `CC1(C)S[C@@H]2[C@H](NC(=O)Cc3ccccc3)C(=O)N2[C@H]1C(=O)O` [PENICILLIN G], the Activity entry in data set [1], in data set [2], in data set [3] and in data set [4] was “substrate [+]” in each case.
On to `CCCCC[C@H](O)/C=C/[C@H]1[C@H](O)CC(=O)[C@@H]1C/C=C\CCCC(=O)O` [DINOPROSTONE], for which the Activity entry in data set [1], in data set [2], in data set [3] and in data set [4] was “substrate [+]” each time.
For `C[C@]12CC[C@@H]3c4ccc(OS(=O)(=O)O)cc4CC[C@H]3[C@@H]1CCC2=O` [ESTRONE SULFURIC ACID], the Activity entry in data set [1] and in data set [4] was “substrate [+]” each time.
For `C[C@]12CC[C@@H]3c4ccc(O)cc4CC[C@H]3[C@@H]1CC[C@@H]2O[C@@H]1O[C@H](C(=O)O)[C@@H](O)[C@H](O)[C@H]1O` [ESTRADIOL 17B GLUCURONIDE], the Activity entry in data set [4] is “substrate [+]”.
